PubChem BioAssay (NCI)
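Each compound was tested at five concentrations against cells in 96-well plates for 48 hours. The concentration for 50% growth inhibition is given as GI50. TGI: concentration producing complete growth inhibition.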

How the values were obtained:
Assay in all cases: inhibition of tumour cell growth, NCI panel, 48 h
786-0 renal = tested on: 786-0 renal
A498 renal = tested on: A498 renal
A549 NSCLC = tested on: A549 NSCLC
ACHN renal = tested on: ACHN renal
BT-549 breast = tested on: BT-549 breast
CAKI-1 renal = tested on: CAKI-1 renal
CCRF-CEM leukemia = tested on: CCRF-CEM leukemia
COLO 205 colon = tested on: COLO 205 colon
DU-145 prostate = tested on: DU-145 prostate
HCC-2998 colon = tested on: HCC-2998 colon
HCT-116 colon = tested on: HCT-116 colon
HCT-15 colon = tested on: HCT-15 colon
HL-60(TB) leukemia = tested on: HL-60(TB) leukemia
HOP-62 NSCLC = tested on: HOP-62 NSCLC
HOP-92 NSCLC = tested on: HOP-92 NSCLC
HS 578T breast = tested on: HS 578T breast
HT29 colon = tested on: HT29 colon
IGROV1 ovarian = tested on: IGROV1 ovarian
K-562 leukemia = tested on: K-562 leukemia
KM12 colon = tested on: KM12 colon
LOX IMVI melanoma = tested on: LOX IMVI melanoma
M14 melanoma = tested on: M14 melanoma
MALME-3M melanoma = tested on: MALME-3M melanoma
MCF7 breast = tested on: MCF7 breast
MDA-MB-231 breast = tested on: MDA-MB-231 breast
MDA-MB-435 = tested on: MDA-MB-435
MOLT-4 leukemia = tested on: MOLT-4 leukemia
NCI-H226 lung = tested on: NCI-H226 lung
NCI-H23 lung = tested on: NCI-H23 lung
NCI-H460 lung = tested on: NCI-H460 lung
NCI-H522 lung = tested on: NCI-H522 lung
NCI/ADR-RES ovarian = tested on: NCI/ADR-RES ovarian
OVCAR-3 ovarian = tested on: OVCAR-3 ovarian
OVCAR-4 ovarian = tested on: OVCAR-4 ovarian
OVCAR-5 ovarian = tested on: OVCAR-5 ovarian
OVCAR-8 ovarian = tested on: OVCAR-8 ovarian
PC-3 prostate = tested on: PC-3 prostate
RPMI-8226 leukemia = tested on: RPMI-8226 leukemia
RXF 393 renal = tested on: RXF 393 renal
SF-268 CNS = tested on: SF-268 CNS
SF-295 CNS = tested on: SF-295 CNS
SF-539 CNS = tested on: SF-539 CNS
SK-MEL-2 melanoma = tested on: SK-MEL-2 melanoma
SK-MEL-28 melanoma = tested on: SK-MEL-28 melanoma
SK-MEL-5 melanoma = tested on: SK-MEL-5 melanoma
SK-OV-3 ovarian = tested on: SK-OV-3 ovarian
SN12C renal = tested on: SN12C renal
SNB-19 CNS = tested on: SNB-19 CNS
SNB-75 CNS = tested on: SNB-75 CNS
SR leukemia = tested on: SR leukemia
SW-620 colon = tested on: SW-620 colon
T-47D breast = tested on: T-47D breast
TK-10 renal = tested on: TK-10 renal
U251 CNS = tested on: U251 CNS
UACC-257 melanoma = tested on: UACC-257 melanoma
UACC-62 melanoma = tested on: UACC-62 melanoma
UO-31 renal = tested on: UO-31 renal

Cn1cc(C2=C(c3cn(C)c4c([N+](=O)[O-])cccc34)C(=O)NC2=O)c2ccccc21
GI50 (786-0 renal): > 25 µM
TGI (786-0 renal): > 25 µM
GI50 (A498 renal): > 25 µM
TGI (A498 renal): > 25 µM
GI50 (A549 NSCLC): > 25 µM
TGI (A549 NSCLC): > 25 µM
GI50 (ACHN renal): > 25 µM
TGI (ACHN renal): > 25 µM
GI50 (BT-549 breast): > 25 µM
TGI (BT-549 breast): > 25 µM
GI50 (CAKI-1 renal): > 25 µM
TGI (CAKI-1 renal): > 25 µM
GI50 (CCRF-CEM leukemia): > 25 µM
TGI (CCRF-CEM leukemia): > 25 µM
GI50 (COLO 205 colon): > 25 µM
TGI (COLO 205 colon): > 25 µM
GI50 (DU-145 prostate): > 25 µM
TGI (DU-145 prostate): > 25 µM
GI50 (HCC-2998 colon): > 25 µM
TGI (HCC-2998 colon): > 25 µM
GI50 (HCT-116 colon): > 25 µM
TGI (HCT-116 colon): > 25 µM
GI50 (HCT-15 colon): > 25 µM
TGI (HCT-15 colon): > 25 µM
GI50 (HL-60(TB) leukemia): > 25 µM
TGI (HL-60(TB) leukemia): > 25 µM
GI50 (HOP-62 NSCLC): > 25 µM
TGI (HOP-62 NSCLC): > 25 µM
GI50 (HOP-92 NSCLC): > 25 µM
TGI (HOP-92 NSCLC): > 25 µM
GI50 (HS 578T breast): > 25 µM
TGI (HS 578T breast): > 25 µM
GI50 (HT29 colon): > 25 µM
TGI (HT29 colon): > 25 µM
GI50 (IGROV1 ovarian): > 25 µM
TGI (IGROV1 ovarian): > 25 µM
GI50 (K-562 leukemia): > 25 µM
TGI (K-562 leukemia): > 25 µM
GI50 (KM12 colon): > 25 µM
TGI (KM12 colon): > 25 µM
GI50 (LOX IMVI melanoma): > 25 µM
TGI (LOX IMVI melanoma): > 25 µM
GI50 (M14 melanoma): > 25 µM
TGI (M14 melanoma): > 25 µM
GI50 (MALME-3M melanoma): > 25 µM
TGI (MALME-3M melanoma): > 25 µM
GI50 (MCF7 breast): > 25 µM
TGI (MCF7 breast): > 25 µM
GI50 (MDA-MB-231 breast): > 25 µM
TGI (MDA-MB-231 breast): > 25 µM
GI50 (MDA-MB-435): > 25 µM
TGI (MDA-MB-435): > 25 µM
GI50 (MOLT-4 leukemia): > 25 µM
TGI (MOLT-4 leukemia): > 25 µM
GI50 (NCI-H226 lung): > 25 µM
TGI (NCI-H226 lung): > 25 µM
GI50 (NCI-H23 lung): > 25 µM
TGI (NCI-H23 lung): > 25 µM
GI50 (NCI-H460 lung): > 25 µM
TGI (NCI-H460 lung): > 25 µM
GI50 (NCI-H522 lung): > 25 µM
TGI (NCI-H522 lung): > 25 µM
GI50 (NCI/ADR-RES ovarian): > 25 µM
TGI (NCI/ADR-RES ovarian): > 25 µM
GI50 (OVCAR-3 ovarian): > 25 µM
TGI (OVCAR-3 ovarian): > 25 µM
GI50 (OVCAR-4 ovarian): > 25 µM
TGI (OVCAR-4 ovarian): > 25 µM
GI50 (OVCAR-5 ovarian): > 25 µM
TGI (OVCAR-5 ovarian): > 25 µM
GI50 (OVCAR-8 ovarian): > 25 µM
TGI (OVCAR-8 ovarian): > 25 µM
GI50 (PC-3 prostate): > 25 µM
TGI (PC-3 prostate): > 25 µM
GI50 (RPMI-8226 leukemia): > 25 µM
TGI (RPMI-8226 leukemia): > 25 µM
GI50 (RXF 393 renal): > 25 µM
TGI (RXF 393 renal): > 25 µM
GI50 (SF-268 CNS): > 25 µM
TGI (SF-268 CNS): > 25 µM
GI50 (SF-295 CNS): > 25 µM
TGI (SF-295 CNS): > 25 µM
GI50 (SF-539 CNS): > 25 µM
TGI (SF-539 CNS): > 25 µM
GI50 (SK-MEL-2 melanoma): > 25 µM
TGI (SK-MEL-2 melanoma): > 25 µM
GI50 (SK-MEL-28 melanoma): > 25 µM
TGI (SK-MEL-28 melanoma): > 25 µM
GI50 (SK-MEL-5 melanoma): > 25 µM
TGI (SK-MEL-5 melanoma): > 25 µM
GI50 (SK-OV-3 ovarian): > 25 µM
TGI (SK-OV-3 ovarian): > 25 µM
GI50 (SN12C renal): > 25 µM
TGI (SN12C renal): > 25 µM
GI50 (SNB-19 CNS): > 25 µM
TGI (SNB-19 CNS): > 25 µM
GI50 (SNB-75 CNS): > 25 µM
TGI (SNB-75 CNS): > 25 µM
GI50 (SR leukemia): > 25 µM
TGI (SR leukemia): > 25 µM
GI50 (SW-620 colon): > 25 µM
TGI (SW-620 colon): > 25 µM
GI50 (T-47D breast): > 25 µM
TGI (T-47D breast): > 25 µM
GI50 (TK-10 renal): > 25 µM
TGI (TK-10 renal): > 25 µM
GI50 (U251 CNS): > 25 µM
TGI (U251 CNS): > 25 µM
GI50 (UACC-257 melanoma): > 25 µM
TGI (UACC-257 melanoma): > 25 µM
GI50 (UACC-62 melanoma): > 25 µM
TGI (UACC-62 melanoma): > 25 µM
GI50 (UO-31 renal): > 25 µM
TGI (UO-31 renal): > 25 µM
